The target of the test is T1, S100P and RAGE (Homo sapiens, UniProt P25815).
T1 construct: endogenous in cells; host or cells: BxPC-3 cell lysate
T1 sequence (P25815 1-95): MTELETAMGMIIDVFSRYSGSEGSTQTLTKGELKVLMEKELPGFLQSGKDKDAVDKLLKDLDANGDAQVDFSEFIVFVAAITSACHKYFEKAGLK
Put plainly: Co-immunoprecipitation of S100P and RAGE from BxPC-3 cell lysates. The class given is binding. To be noted: cromolyn 100 μM. Here is the method: Receptor for advanced glycation end products (RAGE) was identified in the immunoprecipitates by immunoblotting with a goat polyclonal anti-RAGE antibody and anti-S100P as an internal control. In the lower panel, one representative blot and densitometric analysis (means and 95% confidence intervals [CIs]) of three independent experiments is shown. *P<0.001, versus IP α-S100P without cromolyn.
For co-immunoprecipitation experiments, BxPC-3 cell lysates were incubated in the absence or presence of cromolyn (100 μM) at 4° C. overnight. S100P was immunoprecipitated using a mouse monoclonal anti-S100P antibody (Transduction Laboratories, San Diego, Calif.) for 6 hours at 4° C. and IgG-immobilized beads (Pierce Biotechnology, Inc. Rockford, Ill.). Antibody-associated proteins were electrophoresed on 10% polyacrylamide gels and electrophoretically transferred to nitrocellulose membranes. Membranes were blocked in PBS/5% milk overnight at 4° C. RAGE was detected using a goat polyclonal anti-RAGE antibody (1:200, Santa Cruz, Santa Cruz, Calif.), and S100P was detected using a goat polyclonal anti-S100P antibody (1:50, R & D systems, Minneapolis, Minn.) by immunoblotting as described in Arumugam, et al., S100P stimulates cell proliferation and survival via receptor for activated glycation end products (RAGE); J. Biol. Chem. 2004 Feb. 13; 279(7):5059-65. Briefly, membranes were incubated in primary antibody for 1 hour at room temperature followed by incubation with horseradish peroxidase-labeled secondary antibody for 30 minutes at room temperature. After a thorough wash in TBS-T buffer (1M Tris-HCL pH 8.3, 3M NaCl, 0.1% Tween-20), antibody-protein complexes were detected by using a chemiluminescent substrate (GE Healthcare Bio-Sciences Corp., Piscataway, N.J.). The intensity of the band was estimated (as density units) using densitometry (GS-250 Molecular Imaging System, Bio-Rad Laboratories, Richmond, Calif.). The experiment was repeated three times. […]

The values that follow come from patent publication US20110195924A1, “Methods of Inhibiting the Interaction Between S100P and the Receptor for Advanced Glycation End-Products” (priority 2008, published 2011).

SMILES strings stand for the structures.

`O=C(O)c1cc(=O)c2c(OCC(O)COc3cccc4oc(C(=O)O)cc(=O)c34)cccc2o1` [cromolyn, disodium 1,3-bis[(2′-carboxylatochromon-5′-yl)oxy]-2-hydroxypropane]: the “co-immunoprecipitation of S100P and RAGE, difference versus control” value is recorded as 25640 density units; the “total amount of S100P immunoprecipitated” value is on record as “no effect”. The “co-immunoprecipitation of S100P and RAGE, mean” value (control mean 34040) is 8410 density units.
